According to ChEMBL document CHEMBL1201862, “PubChem BioAssay data set” (2004):
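Five concentrations, 48 hours, 96-well plates. GI50 marks 50% less growth.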 Calls of active or inactive are those of the source. Cut-off read from the data, not from the text of the source: active = GI50 up to about 1.1 µM and inactive = higher.

Legend:
Assay in all cases: DTP human tumour cell line panel, 48 h
SK-MEL-5 = system: SK-MEL-5
K562 = system: K562
HCT-15 = system: HCT-15
SNB-78 = system: SNB-78
SK-MEL-2 = system: SK-MEL-2
NCI-H23 = system: NCI-H23
SK-OV-3 = system: SK-OV-3
CCRF-CEM = system: CCRF-CEM
UACC-62 = system: UACC-62
KM12 = system: KM12
EKVX = system: EKVX
SNB-19 = system: SNB-19
OVCAR-5 = system: OVCAR-5
NCI-H226 = system: NCI-H226
CAKI-1 = system: CAKI-1
SN12C = system: SN12C
Hs-578T = system: Hs-578T
T47D = system: T47D
DU-145 = system: DU-145
MDA-MB-231 = system: MDA-MB-231

Compound	GI50 (SK-MEL-5)	GI50 (K562)	GI50 (HCT-15)	GI50 (SNB-78)	GI50 (SK-MEL-2)	GI50 (NCI-H23)	GI50 (SK-OV-3)	GI50 (CCRF-CEM)	GI50 (UACC-62)	GI50 (KM12)	GI50 (EKVX)	GI50 (SNB-19)	GI50 (OVCAR-5)	GI50 (NCI-H226)	GI50 (CAKI-1)	GI50 (SN12C)	GI50 (Hs-578T)	GI50 (T47D)	GI50 (DU-145)	GI50 (MDA-MB-231)
OCCC1(O)CCC(O)CC1 (stereo not drawn)	> 100 µM (inactive)	> 100 µM (inactive)	> 100 µM	> 100 µM (inactive)	> 100 µM (inactive)	> 100 µM (inactive)	> 100 µM (inactive)	> 100 µM (inactive)	> 100 µM (inactive)	> 100 µM (inactive)	> 100 µM (inactive)	> 100 µM (inactive)	> 100 µM (inactive)	> 100 µM (inactive)						
OC1(c2ccccc2)OC(C#Cc2ccccc2)(c2ccccc2)c2ccccc21 (stereo not drawn)	7.89 µM (inactive)	3.55 µM (inactive)	3.44 µM	6.98 µM (inactive)		3.47 µM (inactive)	1.46 µM (inactive)	2.73 µM (inactive)	1.94 µM (inactive)	1.59 µM (inactive)	3.19 µM (inactive)	13.2 µM (inactive)	2.79 µM (inactive)	2.62 µM (inactive)	3.85 µM (inactive)	3.25 µM (inactive)				
O=C(CC(=O)N1N=C(n2ccc3ccccc32)CC1c1ccccc1)Nc1ccc(Cl)cc1 (stereo not drawn)		> 100 µM (inactive)	> 100 µM	> 100 µM (inactive)	> 100 µM (inactive)	> 100 µM (inactive)	> 100 µM (inactive)	> 100 µM (inactive)	> 100 µM (inactive)	> 100 µM (inactive)	> 100 µM (inactive)	> 100 µM (inactive)	> 100 µM (inactive)			> 100 µM (inactive)				
CC(=O)O[C@H]1CC[C@@]2(C)C(=CC[C@H]3[C@@H]4C[C@H](N5CCOCC5)[C@H](OC(C)=O)[C@@]4(C)CC[C@@H]32)C1	> 100 µM (inactive)	25.4 µM (inactive)	> 100 µM		> 100 µM (inactive)	> 100 µM (inactive)	> 100 µM (inactive)	> 100 µM (inactive)	> 100 µM (inactive)	> 100 µM (inactive)	> 100 µM (inactive)	> 100 µM (inactive)	> 100 µM (inactive)	> 100 µM (inactive)	> 100 µM (inactive)	> 100 µM (inactive)	> 100 µM (inactive)	> 100 µM (inactive)	> 100 µM (inactive)	> 100 µM (inactive)
Cc1ccc(NC(=O)CC2SC(Nc3cccc(Cl)c3C)=NC2=O)cc1 (stereo not drawn)	29.6 µM (inactive)	34.6 µM (inactive)	76.9 µM	60.7 µM (inactive)	44.6 µM (inactive)	28.6 µM (inactive)	> 100 µM (inactive)	32.1 µM (inactive)	42 µM (inactive)	40.9 µM (inactive)	70 µM (inactive)	40.4 µM (inactive)	> 100 µM (inactive)		71.4 µM (inactive)	50.9 µM (inactive)				
NC(CCSCC(F)(F)F)C(=O)O (stereo not drawn)	> 100 µM (inactive)	> 100 µM (inactive)	> 100 µM	> 100 µM (inactive)		> 100 µM (inactive)		> 100 µM (inactive)	> 100 µM (inactive)	> 100 µM (inactive)	> 100 µM (inactive)	> 100 µM (inactive)	> 100 µM (inactive)	> 100 µM (inactive)	> 100 µM (inactive)	> 100 µM (inactive)				
O=c1oc2ccc([N+](=O)[O-])cc2c(Nc2ccc3c(c2)Sc2ccccc2O3)c1[N+](=O)[O-]	20.3 µM (inactive)	24.2 µM (inactive)	17.7 µM		20.4 µM (inactive)	18.6 µM (inactive)	24 µM (inactive)	18.9 µM (inactive)	15 µM (inactive)	21.5 µM (inactive)	25.9 µM (inactive)	17.9 µM (inactive)	22.1 µM (inactive)	18.8 µM (inactive)	22.3 µM (inactive)	20 µM (inactive)	37 µM (inactive)	40.7 µM (inactive)	36.7 µM (inactive)	18.6 µM (inactive)
Cc1nc(=O)n2c(C)n[nH]c2c1C(=O)Nc1cc(Cl)cc(Cl)c1	16.1 µM (inactive)	23.8 µM (inactive)	19.3 µM	32.4 µM (inactive)		24.6 µM (inactive)	29 µM (inactive)	20.2 µM (inactive)	16.2 µM (inactive)	31.9 µM (inactive)	31.1 µM (inactive)		65.3 µM (inactive)	24.8 µM (inactive)	36.9 µM (inactive)	15.9 µM (inactive)				
CC1CCCC(C(=O)/C(=C/c2cccc(Cl)c2)C(=O)C(=O)O)C1 (stereo not drawn)	68.2 µM (inactive)	19.5 µM (inactive)	13.8 µM	55.2 µM (inactive)		39.5 µM (inactive)	81.5 µM (inactive)	19.3 µM (inactive)	36.9 µM (inactive)	15.6 µM (inactive)	47.1 µM (inactive)	33.8 µM (inactive)	> 100 µM (inactive)	> 100 µM (inactive)	33.3 µM (inactive)	72.1 µM (inactive)				
